Assay results from ChEMBL document CHEMBL1147574, “Synthesis of a novel peptidic photoaffinity probe for the PTP-1B enzyme” (Bioorg Med Chem Lett, 2004).

Assays:
[1] = Percent adduct formed by co-valent binding to the enzyme was assessed by irradiating a solution of the photoprobe and the PTP1B enzyme with a 40W lamp
[2] = Inhibitory activity of compound against phosphotyrosine phosphatase-1B

Compound	Adduct formation [1]	IC50 [2]
NC(=O)[C@H](Cc1ccc(C(F)(F)P(=O)(O)O)cc1)NC(=O)[C@H](Cc1ccc(C(F)(F)P(=O)(O)O)cc1)NCc1cc(Br)cc(C2(C(F)(F)F)N=N2)c1		1700 nM
NC(=O)[C@H](Cc1ccc(C(F)(F)P(=O)(O)O)cc1)NC(=O)[C@H](Cc1ccc(C(F)(F)P(=O)(O)O)cc1)NC(=O)c1cc(I)cc(C2(C(F)(F)F)N=N2)c1	8%	9 nM
NC(=O)[C@H](Cc1ccc(C(F)(F)P(=O)(O)O)cc1)NC(=O)[C@H](Cc1cc(Br)cc(C2(C(F)(F)F)N=N2)c1)NC(=O)c1cc(Br)cc(C2(C(F)(F)F)N=N2)c1	< 5%	15 nM
NC(=O)[C@H](Cc1ccc(C(F)(F)P(=O)(O)O)cc1)NC(=O)c1cc(Br)cc(C2(C(F)(F)F)N=N2)c1		9500 nM
NC(=O)[C@H](Cc1ccc(C(F)(F)P(=O)(O)O)cc1)NC(=O)[C@H](Cc1ccc(C(F)(F)P(=O)(O)O)cc1)NC(=O)c1cc(Br)cc(C2(C(F)(F)F)N=N2)c1		12 nM
NC(=O)[C@H](Cc1ccc(C(F)(F)P(=O)(O)O)cc1)NC(=O)[C@H](Cc1ccc(C(F)(F)P(=O)(O)O)cc1)NC(=O)[C@H](CCC(=O)O)NC(=O)c1cc(Br)cc(C2(C(F)(F)F)N=N2)c1	8%	14 nM

Stronger by IC50 [2], values ahead:

Adduct formation [1]	IC50 [2]	Compound
8%	4 nM	NC(=O)[C@H](Cc1ccc(C(F)(F)P(=O)(O)O)c(Br)c1)NC(=O)[C@H](Cc1ccc(C(F)(F)P(=O)(O)O)c(Br)c1)NC(=O)c1cc(I)cc(C2(C(F)(F)F)N=N2)c1
5%	3 nM	NC(=O)[C@H](Cc1ccc(C(F)(F)P(=O)(O)O)cc1)NC(=O)[C@H](Cc1ccc(C(F)(F)P(=O)(O)O)cc1)NC(=O)[C@H](CCC(=O)O)NCc1cc(Br)cc(C2(C(F)(F)F)N=N2)c1
6%	0.3 nM	NC(=O)[C@H](Cc1ccc(C(F)(F)P(=O)(O)O)c(Br)c1)NC(=O)[C@H](Cc1ccc(C(F)(F)P(=O)(O)O)c(Br)c1)NC(=O)c1cc(Br)cc(C2(C(F)(F)F)N=N2)c1
